According to PubChem BioAssay (NCI):
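Where inhibition never reached the appropriate level, the endpoint shown equals the highest concentration tested. Otherwise, values were interpolated linearly from a five-concentration, 48-hour dose response in 96-well plates. GI50 = concentration required for 50% inhibition of growth. Definition used: TGI = concentration required for complete inhibition of growth.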

Assays:
Test in all cases: NCI tumour cell line growth inhibition, 48 h
MOLT-4 leukemia = tested on: MOLT-4 leukemia
SK-MEL-2 melanoma = tested on: SK-MEL-2 melanoma
SK-OV-3 ovarian = tested on: SK-OV-3 ovarian
MCF7 breast = tested on: MCF7 breast
COLO 205 colon = tested on: COLO 205 colon
K-562 leukemia = tested on: K-562 leukemia
HL-60(TB) leukemia = tested on: HL-60(TB) leukemia
CAKI-1 renal = tested on: CAKI-1 renal
M14 melanoma = tested on: M14 melanoma
SR leukemia = tested on: SR leukemia
UACC-62 melanoma = tested on: UACC-62 melanoma
NCI-H226 lung = tested on: NCI-H226 lung
TK-10 renal = tested on: TK-10 renal
HCT-15 colon = tested on: HCT-15 colon
SNB-19 CNS = tested on: SNB-19 CNS
SF-268 CNS = tested on: SF-268 CNS
UO-31 renal = tested on: UO-31 renal
NCI-H522 lung = tested on: NCI-H522 lung
SW-620 colon = tested on: SW-620 colon
SF-539 CNS = tested on: SF-539 CNS
UACC-257 melanoma = tested on: UACC-257 melanoma
HCC-2998 colon = tested on: HCC-2998 colon
HS 578T breast = tested on: HS 578T breast
NCI/ADR-RES ovarian = tested on: NCI/ADR-RES ovarian
KM12 colon = tested on: KM12 colon
A498 renal = tested on: A498 renal
A549 NSCLC = tested on: A549 NSCLC
MDA-MB-435 = tested on: MDA-MB-435
ACHN renal = tested on: ACHN renal
PC-3 prostate = tested on: PC-3 prostate
OVCAR-3 ovarian = tested on: OVCAR-3 ovarian
CCRF-CEM leukemia = tested on: CCRF-CEM leukemia
NCI-H23 lung = tested on: NCI-H23 lung
MALME-3M melanoma = tested on: MALME-3M melanoma
OVCAR-4 ovarian = tested on: OVCAR-4 ovarian
NCI-H460 lung = tested on: NCI-H460 lung
RPMI-8226 leukemia = tested on: RPMI-8226 leukemia
SF-295 CNS = tested on: SF-295 CNS
SNB-75 CNS = tested on: SNB-75 CNS
BT-549 breast = tested on: BT-549 breast
OVCAR-5 ovarian = tested on: OVCAR-5 ovarian
RXF 393 renal = tested on: RXF 393 renal
T-47D breast = tested on: T-47D breast
U251 CNS = tested on: U251 CNS
OVCAR-8 ovarian = tested on: OVCAR-8 ovarian
SN12C renal = tested on: SN12C renal
SK-MEL-5 melanoma = tested on: SK-MEL-5 melanoma
MDA-MB-231 breast = tested on: MDA-MB-231 breast
786-0 renal = tested on: 786-0 renal
DU-145 prostate = tested on: DU-145 prostate
HOP-92 NSCLC = tested on: HOP-92 NSCLC
HT29 colon = tested on: HT29 colon
HOP-62 NSCLC = tested on: HOP-62 NSCLC
SK-MEL-28 melanoma = tested on: SK-MEL-28 melanoma
IGROV1 ovarian = tested on: IGROV1 ovarian
EKVX NSCLC = tested on: EKVX NSCLC
HCT-116 colon = tested on: HCT-116 colon
LOX IMVI melanoma = tested on: LOX IMVI melanoma

## FC(F)(F)c1ccc2nc(-c3nc(-c4ccccc4)n4ccccc34)[nH]c2c1
MOLT-4 leukemia
  GI50: 28.3 µM
  TGI: > 100 µM
SK-MEL-2 melanoma
  GI50: 14.9 µM
  TGI: 40.3 µM
SK-OV-3 ovarian
  GI50: 1.86 µM
  TGI: 3.53 µM
MCF7 breast
  GI50: 2.4 µM
  TGI: 21 µM
COLO 205 colon
  GI50: 4.88 µM
  TGI: > 100 µM
K-562 leukemia
  GI50: 11 µM
  TGI: > 100 µM
HL-60(TB) leukemia
  GI50: 27.8 µM
  TGI: > 100 µM
CAKI-1 renal
  GI50: 5.07 µM
  TGI: 27.1 µM
M14 melanoma
  GI50: 17.7 µM
  TGI: > 100 µM
SR leukemia
  GI50: 3.65 µM
  TGI: > 100 µM
UACC-62 melanoma
  GI50: 3.19 µM
  TGI: 17.9 µM
NCI-H226 lung
  GI50: 10.9 µM
  TGI: 32.9 µM
TK-10 renal
  GI50: 2.85 µM
  TGI: 5.32 µM
HCT-15 colon
  GI50: 3.5 µM
  TGI: 22 µM
SNB-19 CNS
  GI50: 6.44 µM
  TGI: 20.8 µM
SF-268 CNS
  GI50: 5.63 µM
  TGI: > 100 µM
UO-31 renal
  GI50: 4.37 µM
  TGI: 18.6 µM
NCI-H522 lung
  GI50: 2.99 µM
  TGI: 9.88 µM
SW-620 colon
  GI50: 3.17 µM
  TGI: 23.6 µM
SF-539 CNS
  GI50: 1.69 µM
  TGI: 3.38 µM
UACC-257 melanoma
  GI50: 13.1 µM
  TGI: 46.2 µM
HCC-2998 colon
  GI50: 5.98 µM
  TGI: 22.4 µM
HS 578T breast
  GI50: 3.65 µM
  TGI: 33.6 µM
NCI/ADR-RES ovarian
  GI50: 3.71 µM
  TGI: 38.5 µM
KM12 colon
  GI50: 5.11 µM
  TGI: > 100 µM
A498 renal
  GI50: 1.69 µM
  TGI: 5.85 µM
A549 NSCLC
  GI50: 3.12 µM
  TGI: 11.1 µM
MDA-MB-435
  GI50: 5.47 µM
  TGI: 31.6 µM
ACHN renal
  GI50: 2.23 µM
  TGI: 6.12 µM
PC-3 prostate
  GI50: 4.11 µM
  TGI: > 100 µM
OVCAR-3 ovarian
  GI50: 4.08 µM
  TGI: 16.3 µM
CCRF-CEM leukemia
  GI50: 5.64 µM
  TGI: > 100 µM
NCI-H23 lung
  GI50: 3.21 µM
  TGI: 14.7 µM
MALME-3M melanoma
  GI50: 2.71 µM
  TGI: 9.02 µM
OVCAR-4 ovarian
  GI50: 1.81 µM
  TGI: 3.71 µM
NCI-H460 lung
  GI50: 2.93 µM
  TGI: 11.2 µM
RPMI-8226 leukemia
  GI50: 3.84 µM
  TGI: 36.9 µM
SF-295 CNS
  GI50: 3.85 µM
  TGI: 15.1 µM
SNB-75 CNS
  GI50: 1.68 µM
  TGI: 3.94 µM
BT-549 breast
  GI50: 4.23 µM
  TGI: 63.4 µM
OVCAR-5 ovarian
  GI50: 6.77 µM
  TGI: 47.2 µM
RXF 393 renal
  GI50: 2.64 µM
  TGI: 6.98 µM
T-47D breast
  GI50: 1.71 µM
  TGI: 16.9 µM
U251 CNS
  GI50: 1.98 µM
  TGI: 4.03 µM
OVCAR-8 ovarian
  GI50: 2.7 µM
  TGI: 7.68 µM
SN12C renal
  GI50: 2.59 µM
  TGI: 8.56 µM
SK-MEL-5 melanoma
  GI50: 1.9 µM
  TGI: 5.55 µM
MDA-MB-231 breast
  GI50: 2.04 µM
  TGI: 5.39 µM
786-0 renal
  GI50: 1.92 µM
  TGI: 3.56 µM
DU-145 prostate
  GI50: 7.5 µM
  TGI: 30.3 µM
HOP-92 NSCLC
  GI50: 3.66 µM
  TGI: 17.4 µM
HT29 colon
  GI50: 3.47 µM
  TGI: 11.1 µM
HOP-62 NSCLC
  GI50: 2.46 µM
  TGI: 9.26 µM
SK-MEL-28 melanoma
  GI50: 9.22 µM
  TGI: 31.6 µM
IGROV1 ovarian
  GI50: 4.03 µM
  TGI: 20.5 µM

## O=C(Nc1ccc(Cl)c(Cl)c1)Nc1ccc(Cl)c([N+](=O)[O-])c1
MOLT-4 leukemia
  GI50: 0.925 µM
  TGI: > 25 µM
SK-MEL-2 melanoma
  GI50: 1.14 µM
  TGI: 5.5 µM
SK-OV-3 ovarian
  GI50: 2.01 µM
  TGI: 5.89 µM
MCF7 breast
  GI50: 0.795 µM
  TGI: 8.32 µM
COLO 205 colon
  GI50: 1.12 µM
  TGI: 4.9 µM
K-562 leukemia
  GI50: 1.06 µM
  TGI: 19 µM
HL-60(TB) leukemia
  GI50: 0.947 µM
  TGI: 14.6 µM
M14 melanoma
  GI50: 1.46 µM
  TGI: 5.04 µM
SR leukemia
  GI50: 2.58 µM
  TGI: > 25 µM
UACC-62 melanoma
  GI50: 1.13 µM
  TGI: 4.15 µM
NCI-H226 lung
  GI50: 1.3 µM
  TGI: 5.54 µM
TK-10 renal
  GI50: 1.42 µM
  TGI: 6.9 µM
HCT-15 colon
  GI50: 0.845 µM
  TGI: 3.56 µM
SNB-19 CNS
  GI50: 1.38 µM
  TGI: 5.29 µM
SF-268 CNS
  GI50: 1.76 µM
  TGI: 6.84 µM
UO-31 renal
  GI50: 0.83 µM
  TGI: 2.92 µM
NCI-H522 lung
  GI50: 0.996 µM
  TGI: 4.9 µM
SW-620 colon
  GI50: 1.1 µM
  TGI: 4.23 µM
SF-539 CNS
  GI50: 2.17 µM
  TGI: 5.51 µM
UACC-257 melanoma
  GI50: 2.85 µM
  TGI: 7.15 µM
EKVX NSCLC
  GI50: 1.04 µM
  TGI: 7.35 µM
HCC-2998 colon
  GI50: 1.22 µM
  TGI: 4.58 µM
HS 578T breast
  GI50: 3.65 µM
  TGI: 16.1 µM
NCI/ADR-RES ovarian
  GI50: 1.02 µM
  TGI: 6.09 µM
KM12 colon
  GI50: 1.07 µM
  TGI: 4.38 µM
A498 renal
  GI50: 1.37 µM
  TGI: 4.47 µM
A549 NSCLC
  GI50: 1.41 µM
  TGI: 8.27 µM
MDA-MB-435
  GI50: 1.16 µM
  TGI: 4.9 µM
ACHN renal
  GI50: 0.8 µM
  TGI: 3.06 µM
PC-3 prostate
  GI50: 0.921 µM
  TGI: 3.59 µM
OVCAR-3 ovarian
  GI50: 0.889 µM
  TGI: 3.66 µM
HCT-116 colon
  GI50: 0.813 µM
  TGI: 3.18 µM
CCRF-CEM leukemia
  GI50: 1.12 µM
  TGI: > 25 µM
NCI-H23 lung
  GI50: 0.698 µM
  TGI: 2.69 µM
MALME-3M melanoma
  GI50: 0.915 µM
  TGI: 4.96 µM
OVCAR-4 ovarian
  GI50: 0.768 µM
  TGI: 8.01 µM
LOX IMVI melanoma
  GI50: 1.03 µM
  TGI: 3.81 µM
NCI-H460 lung
  GI50: 0.888 µM
  TGI: 3.03 µM
RPMI-8226 leukemia
  GI50: 0.895 µM
  TGI: 9.47 µM
SF-295 CNS
  GI50: 0.688 µM
  TGI: 2.54 µM
SNB-75 CNS
  GI50: 4.74 µM
  TGI: 24.4 µM
BT-549 breast
  GI50: 1.87 µM
  TGI: 5.33 µM
OVCAR-5 ovarian
  GI50: 2.79 µM
  TGI: 9.29 µM
RXF 393 renal
  GI50: 2.95 µM
  TGI: 9.29 µM
T-47D breast
  GI50: 0.729 µM
  TGI: 2.83 µM
U251 CNS
  GI50: 1.13 µM
  TGI: 4.3 µM
OVCAR-8 ovarian
  GI50: 1.44 µM
  TGI: 8.91 µM
SN12C renal
  GI50: 1.04 µM
  TGI: 3.94 µM
SK-MEL-5 melanoma
  GI50: 2 µM
  TGI: 5.08 µM
MDA-MB-231 breast
  GI50: 2.93 µM
  TGI: 7.09 µM
786-0 renal
  GI50: 1.49 µM
  TGI: 5.21 µM
DU-145 prostate
  GI50: 1.2 µM
  TGI: > 25 µM
HOP-92 NSCLC
  GI50: 0.66 µM
  TGI: 2.07 µM
HT29 colon
  GI50: 1.24 µM
  TGI: 4.82 µM
HOP-62 NSCLC
  GI50: 2.06 µM
  TGI: 6.04 µM
SK-MEL-28 melanoma
  GI50: 1.3 µM
  TGI: 4.62 µM
IGROV1 ovarian
  GI50: 1.61 µM
  TGI: 6.4 µM
